Measurements: patent US5411964A, “Phenylalanine-glycine compounds having anti-tumor activity, process for preparation thereof, and pharmaceutical composition containing said compounds” (Kureha Chemical Industry Co., Ltd., priority 1992, dated 1995)

Columns and labels:
Sarcoma-180 = test: Antitumor activity: inhibition of solid Sarcoma-180 tumor implanted subcutaneously in ICR mice; format: in vivo; conditions: day 22, i.p. 10 times every other day, mg/kg: 5-Fu 15, MP 10, 5-CAU 10, Phe+5-Fu 15+15, Phe+MP 15+10, Phe+5-CAU 15+10, Phe-5-Fu 30, Phe'-5-Fu 30, Phe-MP 20, Phe-5-CAU 20; for Average tumor weight ± SD: control 3.438 ± 1.481, in g (unit assumed)
Procedure: The concentration of the solid tumor cells (Sarcoma-180) was aseptically adjusted to 1×10^6 /0.2 ml with a medium [prepared by filtering 10% bovine fetal serum-added MEM (Eagles' Minimum Essential Medium) for sterilization, and stored at 4° C.] and subcutaneously implanted at the axillas of ICR mice (5 weeks old; females; one group consisting of 10 mice). From the next day, the samples (0.15% physiological saline solution) shown in Table 1 were administered intraperitoneally 10 times every other day. On the 22nd day, the tumors were excised and the inhibition rate (IR) was obtained from the weight of the tumors. The inhibition rate (IR) (%) was calculated by the following formula: […]
wherein T is the average tumor weight of the treated group, and C is the average tumor weight of the control group.

Wistar rats = test: Acute toxicity, oral forced administration to Wistar rats; format: in vivo; conditions: 250 mg/kg by forced administration, fasted male Wistar rats, observed until 14 days
Procedure: (1) The conditions in the feeding chamber were arranged to a temperature of 23°±1° C., a relative humidity of 55±5%, a ventilation frequency of 20 times per hour, and a lighting term of 12 hours. Wistar rats (male; five-week old;. 120 to 141 g) were used. The rats were placed in metallic cages having wire walls in the front and bottom thereof, at the rate of 5 rats per one cage. They were allowed food (MF: Oriental Yeast) and water ad libitum.
The conjugate (I-1) of the present invention obtained from Example 1(5) was suspended in a 1.5% methylcellulose aqueous solution. The suspension was administered by force. The amount of the administration was 1 ml per 100 g body weight of animals forced to fast for 18 hours, that is, 250 mg/kg was administered. Symptoms of addiction and survival were observed hourly up to 8 hours after the administration, then twice a day until 14 days after administration.

[1] = system: pyruvate kinase M2-type isoenzyme; conditions: low concentration of L-phenylalanine; cited from earlier work

| SMILES | IR (inhibition rate from tumor weight) (Sarcoma-180) | Average tumor weight ± SD (Sarcoma-180) | Survival / death after administration (Wistar rats) | inhibition of M2-type isoenzyme of pyruvate kinase (in words) [1] |
| --- | --- | --- | --- | --- |
| CCOC(=O)C(NC(=O)[C@@H](N)Cc1ccccc1)n1cc(F)c(=O)[nH]c1=O (mixture of isomers) [Phe'-5-Fu, L-phenylalanyl-2-(5-fluorouracil-1-yl)-D,L-glycineethylester] | 76.5% | 0.808 ± 0.389 |  |  |
| N[C@@H](Cc1ccccc1)C(=O)NC(C(=O)O)n1cc(N(CCCl)CCCl)c(=O)[nH]c1=O (mixture of isomers) [Phe-5-CAU, L-phenylalanyl-2-[5-(bis(2-chloroethyl)amino)uracil-1-yl]-D,L-glycine] | 75.2% | 0.854 ± 0.664 |  |  |
| N[C@@H](Cc1ccccc1)C(=O)NC(C(=O)O)n1cc(F)c(=O)[nH]c1=O (mixture of isomers) [Phe-5-Fu, L-phenylalanyl-2-(5-fluorouracil-1-yl)-D,L-glycine] | 77.6% | 0.770 ± 0.397 | No death was observed |  |
| O=c1[nH]cc(N(CCCl)CCCl)c(=O)[nH]1 [5-CAU, 5-[bis(2-chloroethyl)amino]uracil, reference compound] | 54.2% | 1.574 ± 1.285 |  |  |
| O=c1[nH]cc(F)c(=O)[nH]1 [5-Fu, 5-fluorouracil, reference compound] | 57.3% | 1.467 ± 1.437 |  |  |
| N[C@@H](Cc1ccccc1)C(=O)O [L-phenylalanine] |  |  |  | selectively inhibited |
| N[C@@H](Cc1ccc(N(CCCl)CCCl)cc1)C(=O)O [MP, Melphalan, reference compound] | 60.5% | 1.358 ± 1.369 |  |  |
| CCOC(=O)C(NC(=O)[C@@H](N)Cc1ccccc1)N[C@@H](Cc1ccc(N(CCCl)CCCl)cc1)C(=O)OC (stereo partly drawn) [Phe-MP, L-phenylalanyl-2-[p-(bis(2-chloroethyl)amino)-L-phenylalaninemethylester-2-yl]-D,L-glycineethylester] | 72.6% | 0.943 ± 0.587 |  |  |
